Assay results reported in US20240287046A1, “COMPOUNDS AND RADIOLIGANDS FOR TARGETING NEUROTENSIN RECEPTOR AND USES THEREOF” (Full-Life Technologies HK Limited, priority 2022, published 2024).

Columns and labels:
[1] = test system: ASPC-1 tumor-bearing mice; test: Biodistribution of radionuclide labeled complexes in ASPC-1 tumor-bearing mice; assay type: in vivo, BALB/c nude mice; settings: ^177Lu-labeled complex
Procedure, shortened: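 Radiolabeled compound (~30-50 μCi, ~1.11-1.85 MBq, specific activity 30-250 μCi/nmol) was injected i.v. via tail vein into nude mice carrying 0.05-0.50 g subcutaneous NTSR-1-positive human tumors. At set times, tissues were collected, weighed and γ-counted; % ID and % ID/g were calculated.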

human NTSR-1 [2] = target: T1, human NTSR-1 (Homo sapiens (Human), UniProt P30989); test: radioligand competitive binding assay using ^177Lu labeled C-1 as reference radioligand; settings: for Relative Binding Affinity: Mean IC50 of C-1/Mean IC50 of the test compound; for IC50: Nonlin fit, single assay, HT-29 cells
Protocol: The binding affinities of test compounds were determined by a radioligand competitive binding assay using ^177Lu labeled C-1 as the reference radioligand.
Briefly, 100 μL HT-29 cells expressing human NTSR-1 at a density of 1˜2×10^6 cells/mL were mixed with binding buffer (RPMI-1640 medium supplemented with 0.25% bovine serum albumin) in each well of the 96-well filter plate (Millipore). Then the cells in each well were incubated with ^177Lu—C-1 (0.55 μCi/well) and the test compound under 37° C. for 1 hr (n=3). After incubation, unbound ^177Lu—C-1 and the test compound in each well was removed by filtration using a Multiscreen vacuum manifold (Millipore) and the cells were further rinsed with the binding buffer for 5 times. The cells from each well were then collected and radioactivity of the cells in each well was individually measured by y counter (2480 WIZARD2, PerkinElmer). The best-fit IC50 value of test compounds (inhibitory concentration when 50% of the bound ^177Lu—C-1 on cells were displaced) were calculated by fitting the data with nonlinear regression using GraphPad Prism 8.0.1.

human NTSR-1 [3] = target: T1, human NTSR-1; test: FLIPR assay, inhibition of Neurotensin-induced intracellular-calcium mobilization; assay type: cell-based; settings: for IC50 compared to comparator compound C-2: FLIPR assay; for IC50: HEK293 cells stably expressing human NTSR-1, mean, read-out: IC50 (nM) in FLIPR Assays
Protocol: Binding affinities of the representative compounds were also evaluated by FLIPR assay. Neurotensin receptor 1 belongs to the G-protein coupled receptors (GPCR) family. Activation of NTSR-1 by its ligand Neurotensin can induce intracellular-calcium mobilization. In FLIPR assay, the test compound and Neurotensin were incubated together with cells expressing NTSR-1 to measure inhibition of the intracellular-calcium mobilization by the test compound so that to evaluate its binding affinity.
Briefly, HEK293 cells stably expressing human NTSR-1 were plated in 384-well plates. 20 ul cell suspension at a concentration of 10×10^5 per ml was seeded in each well and incubated at 37° C. 5% CO2 overnight. Then the cells in each well were mixed with 20 ul probenecid assay buffer, 20 ul 8 uM Fluo-4 Direct™ Loading Buffer, 6×EC80 of Neurotensin and 10 μl of the diluted test compound, and incubated at 37° C. 5% CO2 for 50 min followed by incubation at room temperature for 10 min. The plate was then subject to FLIPR analysis.

[4] = read-out: LogIC50 Mean (converted)

T1 sequence (P30989 whole entry): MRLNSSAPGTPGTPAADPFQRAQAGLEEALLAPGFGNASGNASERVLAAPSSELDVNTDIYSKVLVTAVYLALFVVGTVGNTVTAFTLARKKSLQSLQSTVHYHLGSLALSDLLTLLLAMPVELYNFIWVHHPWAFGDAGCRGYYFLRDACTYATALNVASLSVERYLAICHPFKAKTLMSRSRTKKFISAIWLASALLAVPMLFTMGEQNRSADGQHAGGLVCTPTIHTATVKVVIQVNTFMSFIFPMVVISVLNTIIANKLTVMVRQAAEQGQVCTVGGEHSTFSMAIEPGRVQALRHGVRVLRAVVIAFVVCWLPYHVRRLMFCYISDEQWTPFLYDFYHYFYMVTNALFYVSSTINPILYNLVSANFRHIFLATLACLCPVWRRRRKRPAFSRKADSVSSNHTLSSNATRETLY

Structure (SMILES) | AUC (0-72 h) ratio Tumor/Blood [1] | AUC (0-72 h) ratio Tumor/Kidney [1] | AUC (0-72 h) ratio Tumor/Liver [1] | AUC (0-72 h) ratio Tumor/Lung [1] | binding affinity vs 3BP-227 (C-2) on removal of the tertiary amine motif in the linker (human NTSR-1 [2]) | Relative Binding Affinity (human NTSR-1 [2]) | IC50 compared to comparator compound C-2 (human NTSR-1 [3]) | IC50 (human NTSR-1 [3]) [nM] | IC50 (human NTSR-1 [2]; read-out: IC50 (nM) Mean) [nM] | IC50 (human NTSR-1 [2]; [4]) [nM] | binding affinity compared to comparator compound C-1 or C-3 (human NTSR-1 [2]; single radioligand competitive binding assay)
COc1cccc(OC)c1-c1cc(C(=O)NC2(C(=O)O)C3CC4CC(C3)CC2C4)nn1-c1ccc(NCCOCCOCCNC(=O)CN2CCN(CC(=O)O)CCN(CC(=O)O)CCN(CC(=O)O)CC2)cc1C(C)C (stereo not drawn) [Compound I-10, 2,2′,2″-(10-(2-((2-(2-(2-((4-(3-((2-carboxyadamantan-2-yl)carbamoyl)-5-(2,6-dimethoxyphenyl)-1H-pyrazol-1-yl)-3-isopropylphenyl)amino)ethoxy)ethoxy)ethyl)amino)-2-oxoethyl)-1,4,7,10-tetraazacyclododecane-1,4,7-triyl)triacetic acid] | 58.0 | 15.4 | 41.1 | 31.3 | not compromise the binding affinity | 28.3 | – | – | – | – | –
COc1cccc(OC)c1-c1cc(C(=O)NC2(C(=O)O)C3CC4CC(C3)CC2C4)nn1-c1ccc(OCCCN(C)CCCN(C)C(=O)CN2CCN(CC(=O)O)CCN(CC(=O)O)CCN(CC(=O)O)CC2)cc1C(C)C (stereo not drawn) [Compound I-7, 2,2′,2″-(10-(2-((3-((3-(4-(3-((2-carboxyadamantan-2-yl)carbamoyl)-5-(2,6-dimethoxyphenyl)-1H-pyrazol-1-yl)-3 isopropylphenoxy)propyl)(methyl)amino)propyl)(methyl)amino)-2-oxoethyl)-1,4,7,10-tetraazacyclododecane-1,4,7-triyl)triacetic acid] | 34.4 | 18.1 | 23.1 | 40.1 | – | 156.7 | lower IC50 | 11.7 | – | – | –
COc1cccc(OC)c1-c1cc(C(=O)NC2(C(=O)O)C3CC4CC(C3)CC2C4)nn1-c1ccc(N(CCCN(C)C)C(=O)COCCOCCNC(=O)CN2CCN(CC(=O)O)CCN(CC(=O)O)CCN(CC(=O)O)CC2)cc1C(C)C (stereo not drawn) [Compound I-6] | – | – | – | – | – | 3.1 | lower IC50 | 16.2 | – | – | –
COc1cccc(OC)c1-c1cc(C(=O)NC2(C(=O)O)C3CC4CC(C3)CC2C4)nn1-c1ccc(NCCCN(C)CCCNC(=O)CN2CCN(CC(=O)O)CCN(CC(=O)O)CCN(CC(=O)O)CC2)cc1C(C)C (stereo not drawn) [Compound I-2, 2,2′,2″-(10-(2-((3-((3-((4-(3-((−2-carboxyadamantan-2-yl)carbamoyl)-5-(2,6-dimethoxyphenyl)-1H-pyrazol-1-yl)-3-isopropylphenyl)amino)propyl)(methyl)amino)propy)amino)-2-oxoethyl)-1,4,7,10-tetraazacyclododecane-1,4,7-triyl)triacetic acid] | 12.5 | 10.4 | 10.6 | 39.4 | – | – | – | – | 0.559 | 0.558 | –
COc1cccc(OC)c1-c1cc(C(=O)NC2(C(=O)O)C3CC4CC(C3)CC2C4)nn1-c1ccc(N(C)CCCN(C)CCCN(C)C(=O)CN2CCN(CC(=O)O)CCN(CC(=O)O)CCN(CC(=O)O)CC2)cc1C(C)C (stereo not drawn) [Compound I-1, 2,2′,2″-(10-(2-((3-((3-((4-(3-((2-carboxyadamantan-2-yl)carbamoyl)-5-(2,6-dimethoxyphenyl)-1H-pyrazol-1-yl)-3-isopropylphenyl)(methyl)amino)propyl)(methyl)amino)propyl)(methyl)amino)-2-oxoethyl)-1,4,7,10-tetraazacyclododecane-1,4,7-triyl)triacetic acid] | 36.5 | 5.6 | 12.8 | 39.3 | – | 82.6 | – | – | 0.465 | 0.465 | higher binding affinity
